Laboratory results published in patent US8937167B2 (Washington University, priority 2009, dated 2015).
≈ marks a conversion by molar mass, not a printed value. Where “and” joins values, the source holds several entries; their conditions need not be identical. Identical values can stand only once. Entries after “also recorded” stand apart in the source; their conditions may differ. Like-named read-outs stand apart in the source and are kept apart here.

Tests used:
[1] = target: T1, FimH (Escherichia coli, UniProt P08191); assay: biochemical; assay type: binding, E. coli; details: FP assay potency
[2] = target: T1, FimH; details: previously reported, SPR; cited from earlier work
[3] = test system: UTI89 biofilm; assay: Biofilm in human urine under flow on silicone tubing (crystal violet, CFU); assay type: cell-based, uropathogenic E. coli UTI89; details: 1% in human urine, 24 h
Method: Biofilms were grown as described by Ferrieres et al. (2007; FEMS Immun. Med. Micro 51:212) on All Silicone Foley catheters (Bard Medical, GA) or silicone tubing (Thermo Fisher Scientific Inc., PA) and modified as follows. All tubing and connectors in the system were autoclaved and ethanol sterilized prior to use. The system was assembled similar to the previously described flow-chamber system. Priming of the catheter or the silicone tubing occurred at 37° C. for 20 min by flowing pre-warmed pooled human urine. Urine was collected from healthy volunteers as approved by the Institutional Review Board of Washington University in St. Louis. Pooled samples were spun at 10000×g for 15 min, filtered through […], and, if necessary, stored at 4° C. for no more than 3 days. Three milliliters of stationary-phase E. coli from overnight cultures were diluted to 1−2×10^6 CFU/ml in human urine and injected into the catheter or silicone tubing using a 30 cc gauge needle. The bacteria were allowed to attach to the substratum for 1 h before urine flow via Watson-Marlow peristaltic pump 205S was resumed at 0.5 ml min^−1. […] Viable bacterial counts were assessed by serial dilution on LB plate with appropriate antibiotics. […] The bound crystal violet was then dissolved in 200 μl of 33% acetic acid and absorbance measured at 595 nm. The amount of biofilm was expressed as CFU/ml per cm^2 and A595/cm^2. […]

[4] = test system: UTI89; assay: Growth curve / MIC determination in LB; assay type: cell-based, E. coli (UPEC); details: Escherichia coli
Method: (§1) Mannoside 6 was added at 100 μM. Growth curves were performed in a 96-well plate at 37° C. with A600 readings taken every 30 min for 8 h. Minimum inhibitory concentration (MIC) was calculated as the lowest concentration of antibiotic that prevented growth of the bacterial strain.

[5] = test system: PBC-1; assay: Growth curve / MIC determination in LB; assay type: cell-based, E. coli (UPEC); details: PBC-1
Method: Growth curve. […] Mannoside ZFH-2056 was added at 100 μM. Growth curves were performed in a 96-well plate at 37° C. with A600 readings taken every 30 min for 8 h.
as §1

[6] = test system: UTI89; assay: Chronic cystitis mouse model, bladder titers after oral mannoside treatment; assay type: in vivo, E. coli (UPEC); host C3H/HeN mouse; details: PO 50 mg/kg, 6 hours posttreatment, relative to PBS
Method: Mice were infected with the uropathogenic E. coli (UPEC) strain UTI89. Animals that established chronic infection were treated at day 12 post infection with 5 doses of 50 mg/kg of Mannoside 8 administered 8 h apart (mice treated with PBS in the same way were included as controls). Mice were sacrificed 48 h post initial dose and bladder titers were enumerated.
In order to determine the therapeutic potential of 6 for treating chronic UTIs, a unique preclinical murine model was adopted. In humans, the ultimate outcome of UPEC infection of the urinary tract ranges from asymptomatic bacteriuria to acute self-limiting infection to chronic/recurrent UTI. Similarly, the outcome of UTI in C3H/HeN mice ranges from self-limiting to long-lasting, chronic cystitis characterized by persistent, high titer bacteriuria (>10^4 colony forming units (CFU)/ml), high titer bacterial bladder burdens at sacrifice >2 weeks post-infection (wpi), chronic inflammation, and urothelial necrosis. […] Thus, C3H/HeN mice were infected with 1×10^7 CFU of UTI89 and mice developing chronic cystitis, as determined by persistent urine titers of […] through 2 weeks post infection (wpi), were PO treated at 2 wpi with 6 at a single dose of 100 or 50 mg/kg to evaluate the ability of mannoside to treat UTI. 6 hours post-treatment bacterial counts in the bladder were enumerated. […]

[7] = target: FimH (Escherichia coli, UniProt Q1R2J4);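 note: hemagglutination inhibition of guinea pig erythrocytes agglutinated by type 1 piliated uropathogenic E. coli via FimH mannose binding, quantified through serial dilutions of compound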
Method: In some embodiments, activity of the compound is measured using hemmagglutination titer of guinea pig red blood cells. Hemagglutination of guinea pig red blood cells by type1 piliated UPEC is dependent upon FimH mannose binding ability and serial dilutions allow a quantitative analysis.
Biological activity against FimH was evaluated using a guinea pig red blood cell-based hemagglutination (HA) assay (ref) in which the concentration of the mannoside on reducing agglutination by 50% was used as the primary endpoint (50% HA titer).
Hemagglutination of guinea pig red blood cells by type1 piliated UPEC is dependent upon FimH mannose binding ability. Serial dilutions allow a quantitative analysis using this assay.
Hemagglutination assays for mannose-sensitive agglutination of guinea pig red blood cells were performed as previously described.

Which results are given for CCCCCCCOC1OC(CO)C(O)C(O)C1O (stereo not shown) [Heptyl mannoside, reference compound]?
EC50 [1]: 89 nM; Kd [2]: 5 nM

What does the source list for COC1O[C@H](CO)[C@@H](O)[C@H](O)[C@@H]1O (stereo partly shown) [methyl mannose]?
biofilm biomass (crystal violet) [3]: significantly reduced biomass; also recorded: prevents UPEC biofilm formation; biofilm-adherent cells (CFU) [3]: significantly reduced

For Cc1cc(NS(=O)(=O)c2ccc(N)cc2)no1 [SMZ, Sulfamethoxazole], which MIC [4] is on record?
The MIC was 0.25 µg/mL (≈ 0.987 µM).

Which MIC ([5]; Escherichia coli, read-out: Minimum Inhibition Concentration (MIC)) does the source give for COc1cc(Cc2cnc(N)nc2N)cc(OC)c1OC [TMP, Trimethoprim] here?
The MIC was 256 µg/mL (≈ 882 µM).

And the MIC [5]?
The MIC was 0.000256 µg/mL (≈ 0.000882 µM).

And the MIC [4]?
Its MIC is 0.05 µg/mL (≈ 0.172 µM).

Which “reduction in bladder bacterial counts” value [6] does the source give for CNC(=O)c1cc(C(=O)NC)cc(-c2ccc(O[C@H]3O[C@H](CO)[C@@H](O)[C@H](O)[C@@H]3O)c(C(F)(F)F)c2)c1 [Compound 10, N1,N3-dimethyl-5-[3-(trifluoromethyl)-4-[(2R,3S,4S,5S,6R)-3,4,5-trihydroxy-6-(hydroxymethyl)tetrahydropyran-2-yl]oxy-phenyl]benzene-1,3-dicarboxamide] here?
Its value is 4 log and 3 log.

And the “fold more potent in vitro” value ([7]; 10 relative to 8, Examples 25-29 numbering)?
Its value is 8 fold.

And the HAI ([7]; Examples 25-29 numbering)?
Its HAI is 8 nM.

And the “fold improvement (HAI)” value ([7]; over butyl-α-D-mannoside)?
The value was 15,000 fold.

And the “fold better (HAI)” value ([7]; than lead 6, Examples 25-29 numbering)?
Its value is 50 fold.
